Target: T1, E. coli GlpG (Escherichia coli, UniProt P09391)
T1 sequence (P09391 1-276): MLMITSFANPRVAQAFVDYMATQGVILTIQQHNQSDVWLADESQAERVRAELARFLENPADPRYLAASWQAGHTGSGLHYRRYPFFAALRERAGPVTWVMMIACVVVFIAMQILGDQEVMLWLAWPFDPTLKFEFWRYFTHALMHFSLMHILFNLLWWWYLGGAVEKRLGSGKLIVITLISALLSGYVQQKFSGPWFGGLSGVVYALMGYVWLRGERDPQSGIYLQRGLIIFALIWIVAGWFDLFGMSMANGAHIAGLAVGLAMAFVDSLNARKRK
Test: FRET peptide cleavage assay
Assay type: biochemical

An IC50 of 296 µM was found for `Cc1ccc(S(=O)(=O)N[C@@H](Cc2ccccc2)C(=O)CCl)cc1` [tosyl phenylalanyl chloromethylketone] in this work.

From article PMC12847965 (Nature Communications, 2025)
